According to ChEMBL document CHEMBL1130929, “Conformationally restricted analogues of nicotine and anabasine” (Bioorg Med Chem Lett, 1998):

How the values were obtained:
[1] = In vitro ability to displace tritiated nicotine from rat brain binding sites
[2] = In vitro agonist activity against activated human recombinant alpha3-beta4 neuronal acetylcholine receptors (nAChR) in Xenopus Oocytes; assay type: functional, cell-based
[3] = organism: Rattus norvegicus; assay: Compound was tested for its ability to release dopamine from rat striatal slices at 300 uM; assay type: functional
[4] = target: Neuronal acetylcholine receptor; alpha3/beta4 (Homo sapiens) (UniProt P30926+P32297); assay: In vitro agonist activity against activated human recombinant Nicotinic acetylcholine receptor alpha3-beta4 in Xenopus Oocytes; assay type: functional, cell-based
[5] = target: T1, Neuronal acetylcholine receptor; alpha4/beta2 (Homo sapiens, UniProt P17787+P43681); assay: Compound was evaluated for agonist activity against activated human recombinant Nicotinic acetylcholine receptor alpha4-beta2 in Xenopus Oocytes; assay type: functional, cell-based
[6] = target: T2, Neuronal acetylcholine receptor; alpha4/beta4 (Homo sapiens, UniProt P30926+P43681); assay: Compound was evaluated for its agonist activity against activated human recombinant Nicotinic acetylcholine receptor alpha4-beta4 in Xenopus Oocytes; assay type: functional, cell-based
[7] = target: T1, Neuronal acetylcholine receptor; alpha4/beta2; assay: Compound was evaluated for agonist activity against activated human recombinant aNicotinic acetylcholine receptor alpha4-beta2 in Xenopus Oocytes; assay type: functional, cell-based
[8] = target: T2, Neuronal acetylcholine receptor; alpha4/beta4; assay: Compound was evaluated for agonist activity against activated human recombinant Nicotinic acetylcholine receptor alpha4-beta4 in Xenopus Oocytes; assay type: functional, cell-based
[9] = target: T3, Neuronal acetylcholine receptor; alpha2/beta4 (Homo sapiens, UniProt P30926+Q15822); assay: (§1) Compound was evaluated for agonist activity against activated human recombinant Nicotinic acetylcholine receptor alpha2-beta4 in Xenopus Oocytes; assay type: functional, cell-based
[10] = target: T3, Neuronal acetylcholine receptor; alpha2/beta4; assay: as §1; assay type: functional, cell-based; remark: listed apart in the source
[11] = In vitro ability to displace tritiated nicotine from rat brain binding sites, and calcium flux (c.f)
[12] = organism: Rattus norvegicus; assay: In vitro ability to release dopamine from rat striatal slices; assay type: functional

T2 sequence (P30926 whole entry): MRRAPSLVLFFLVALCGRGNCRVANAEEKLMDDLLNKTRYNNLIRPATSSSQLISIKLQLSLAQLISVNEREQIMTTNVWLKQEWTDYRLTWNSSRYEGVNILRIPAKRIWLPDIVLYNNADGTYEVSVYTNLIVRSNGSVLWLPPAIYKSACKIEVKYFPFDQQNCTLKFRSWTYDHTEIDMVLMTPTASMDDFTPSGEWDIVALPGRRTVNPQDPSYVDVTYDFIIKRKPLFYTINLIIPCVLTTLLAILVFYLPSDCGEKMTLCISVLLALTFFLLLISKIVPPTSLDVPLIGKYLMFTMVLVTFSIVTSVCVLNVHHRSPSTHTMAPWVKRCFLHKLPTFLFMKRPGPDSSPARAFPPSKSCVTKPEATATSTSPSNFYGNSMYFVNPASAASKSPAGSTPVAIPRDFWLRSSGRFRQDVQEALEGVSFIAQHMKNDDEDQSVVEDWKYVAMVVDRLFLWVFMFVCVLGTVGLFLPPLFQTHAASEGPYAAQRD
T2 sequence (P43681 whole entry): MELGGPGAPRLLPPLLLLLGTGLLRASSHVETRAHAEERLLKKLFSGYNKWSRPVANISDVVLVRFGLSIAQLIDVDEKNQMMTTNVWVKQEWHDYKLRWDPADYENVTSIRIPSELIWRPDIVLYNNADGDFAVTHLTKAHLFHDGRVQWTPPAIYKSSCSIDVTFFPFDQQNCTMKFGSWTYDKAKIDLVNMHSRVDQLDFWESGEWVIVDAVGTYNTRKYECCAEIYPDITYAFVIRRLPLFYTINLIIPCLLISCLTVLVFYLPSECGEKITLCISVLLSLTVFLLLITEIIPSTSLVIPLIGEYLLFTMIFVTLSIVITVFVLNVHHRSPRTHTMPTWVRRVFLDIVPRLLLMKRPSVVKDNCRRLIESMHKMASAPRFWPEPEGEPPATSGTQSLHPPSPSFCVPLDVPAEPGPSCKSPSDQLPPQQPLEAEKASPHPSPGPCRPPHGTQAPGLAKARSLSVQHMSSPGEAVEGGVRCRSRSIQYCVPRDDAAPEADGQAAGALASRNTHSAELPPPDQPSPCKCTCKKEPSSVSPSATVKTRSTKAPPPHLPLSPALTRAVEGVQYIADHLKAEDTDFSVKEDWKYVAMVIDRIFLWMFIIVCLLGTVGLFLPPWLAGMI
T3 sequence (P30926 whole entry): as the sequence (P30926 whole entry) above
T3 sequence (Q15822 whole entry): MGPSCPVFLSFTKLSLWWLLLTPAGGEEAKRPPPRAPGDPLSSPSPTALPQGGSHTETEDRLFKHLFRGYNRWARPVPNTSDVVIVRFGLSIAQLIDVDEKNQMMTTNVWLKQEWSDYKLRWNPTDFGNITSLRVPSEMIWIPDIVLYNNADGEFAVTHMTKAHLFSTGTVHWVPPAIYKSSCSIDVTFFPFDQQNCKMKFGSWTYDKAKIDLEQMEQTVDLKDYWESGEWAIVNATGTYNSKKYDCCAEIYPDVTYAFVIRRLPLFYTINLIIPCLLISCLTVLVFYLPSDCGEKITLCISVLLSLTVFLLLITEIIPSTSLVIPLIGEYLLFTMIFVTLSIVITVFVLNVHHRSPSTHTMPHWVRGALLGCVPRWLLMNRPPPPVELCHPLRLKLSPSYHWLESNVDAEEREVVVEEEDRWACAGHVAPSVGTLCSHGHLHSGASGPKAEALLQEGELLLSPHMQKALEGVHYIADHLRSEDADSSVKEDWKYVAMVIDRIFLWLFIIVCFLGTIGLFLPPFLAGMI
T1 sequence (P17787 whole entry): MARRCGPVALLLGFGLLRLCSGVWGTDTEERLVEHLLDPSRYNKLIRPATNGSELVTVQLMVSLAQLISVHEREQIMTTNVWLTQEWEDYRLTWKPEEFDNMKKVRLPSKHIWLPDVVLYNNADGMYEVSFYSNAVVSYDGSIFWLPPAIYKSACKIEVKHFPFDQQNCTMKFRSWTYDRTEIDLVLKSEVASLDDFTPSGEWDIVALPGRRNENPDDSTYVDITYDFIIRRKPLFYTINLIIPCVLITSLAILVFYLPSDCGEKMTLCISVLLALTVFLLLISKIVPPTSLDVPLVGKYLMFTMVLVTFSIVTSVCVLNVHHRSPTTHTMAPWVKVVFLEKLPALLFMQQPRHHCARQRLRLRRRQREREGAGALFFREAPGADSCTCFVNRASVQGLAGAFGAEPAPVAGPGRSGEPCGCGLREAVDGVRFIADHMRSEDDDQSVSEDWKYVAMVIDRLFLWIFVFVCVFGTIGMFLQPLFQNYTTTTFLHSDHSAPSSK
T1 sequence (P43681 whole entry): as the sequence (P43681 whole entry) above

| SMILES | IC50 [1] [µM] | EC50 [2] [µM] | Efficacy [3] | Efficacy [4] [%] | Efficacy [5] [%] | EC50 [6] [µM] | EC50 [7] [µM] | Efficacy [8] [%] | Efficacy [9] [%] | EC50 [10] [µM] | IC50 [11] [µM] | Efficacy [12] [%] |
| --- | --- | --- | --- | --- | --- | --- | --- | --- | --- | --- | --- | --- |
| COc1cc2c(cn1)C1NCCC1CC2 (stereo not drawn) | 1.9 | 81 | 73 | 5 | 8 | 32 | 3 | 44 | 22 | 87 | – | – |
| CN1CCC[C@H]1c1cccnc1 [NICOTINE] | – | – | – | – | – | – | – | – | – | – | 0.004 | – |
| c1cc2c(cn1)C1NCCC1CC2 (stereo not drawn) | – | – | – | – | – | – | – | – | – | – | 0.51 | 56 |
